Measured values: patent US4499099A, “Nortropane and granatane type compounds useful in treating psychosis” (Beecham Group p.l.c., priority 1981, dated 1985)
Where a name gives a salt, the structure may show the parent alone.

What follows are molecules tested on post-synaptic Dopamine (D.A.) receptors (assay: Inhibition of Apomorphine Induced Climbing in the Mouse). Conditions: male CD1 mice, apomorphine 1 mg/kg s.c., test compound administered subcutaneously 30 minutes prior to apomorphine (b213 says pre-treated orally), climbing scored at 10 and 20 minutes, read-out: ED50 (dose that produced a 50% inhibition of apomorphine-induced climbing).
Assay type: in vivo
Method: The results in the following table are on illustration of the anti-psychotic activity of the present compounds as shown by Inhibition of Apomorphine Induced Climbing in the Mouse, a standard test.
The test is based on that described by Protais, P., Constantin, J. and Schwartz J. C. (1976), Psychopharmacology, 50, 1-6.
When mice are given a dose of 1 mg/kg apomorphine and then placed in an enclosed environment, such as an inverted wire cage, they are seen to climb around the walls. This behavioural phenomenon is thought to be a consequence of the stimulation of post-synaptic Dopamine (D.A.) receptors in the nucleus accumbens. Inhibition of apomorphine induced climbing is therefore indicative of post-synaptic D.A. receptor blockade in the accumbens.
Groups of 10 male CD1 mice, weighing 25-30 g were pre-treated orally with either graded doses of the test compound or vehicle, at appropriate time intervals before the subcutaneous administration of a sub-maximal dose of apomorphine (1 mg/kg). Immediately after the apomorphine injection the mice were placed in wire `climbing cages` and each animal was scored for climbing behaviour at 10 and 20 minutes post apomorphine as follows:
Four paws on cage floor=0
The test compound was administered subcutaneously 30 minutes prior to administration of apomorphine.
The total score was calculated for each group of mice and expressed as a percentage inhibition of climbing. [formula]
ED50's and fiducial limits were calculated according to the method of Litchfield and Wilcoxon, the ED50 being the dose that produced a 50% inhibition of apomorphine--induced climbing.

Q: Which ED50 does the source give for `COc1cc(N)c(SC)cc1C(=O)N[C@@H]1C[C@H]2CC[C@@H](C1)N2Cc1ccccc1` [Example 1, 4-Amino-2-methoxy-5-methylthio-N-[3-β-(8-benzyl-8-azabicyclo(3,2,1)octyl)]benzamide] here?
A: 0.66 mg/kg

Q: `COc1cc(N)c(SC)cc1C(=O)N[C@@H]1C[C@H]2CCC[C@@H](C1)N2Cc1ccc(F)cc1` [Example 2, 4-Amino-2-methoxy-5-methylthio-[N-(9-(4^1-fluorobenzyl)-9-azabicyclo(3.3.1)non-3β-yl)]benzamide] was tested. Which ED50 did it give?
A: 0.32 mg/kg

Q: For `COc1cc(SC)cc(C(=O)N[C@@H]2C[C@H]3CC[C@@H](C2)N3Cc2ccccc2)c1OC` [Example 3, 2,3-Dimethoxy-5-methylthio-N[3β(8-benzyl-8-azabicyclo[3.2.1]octyl)]benzamide hydrochloride], which ED50 is on record?
A: 0.44 mg/kg

Q: With `COc1cc(SC)cc(C(=O)N[C@@H]2C[C@H]3CCC[C@@H](C2)N3Cc2ccc(F)cc2)c1OC` [Example 4, 2,3-dimethoxy-5-methylthio-[N-(9-(4^1-fluorobenzyl)-9-azabicyclo(3.3.1)non-3β-yl)]benzamide] as the molecule, how does the ED50 read?
A: 0.56 mg/kg
